The supplement of paper PMC10307832

Assays:
Experiment in all cases: relative viability (nuclei count vs DMSO), 5 days (fraction); higher = more cells survive
BAY61-3606 + Pemetrexed = compound: COC1=C(C=C(C=C1)C2=CC3=NC=CN3C(=N2)NC4=C(C=CC=N4)C(=O)N)OC [BAY61-3606] + Nc1nc2[nH]cc(CCc3ccc(C(=O)N[C@@H](CCC(=O)O)C(=O)O)cc3)c2c(=O)[nH]1 [Pemetrexed] (partner 0.2 µM)
In short: (§1)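 Relative viability divides the nuclei count in treated wells by that in vehicle wells. Lung cancer cell lines were seeded in 1536-well plates, dosed by pin tool the next day, and fixed and stained after 5 days in one step with final 0.05% Triton X-100, 1% formaldehyde and 1 ug/ml Hoechst. Dosing was a single drug or a fixed anchor-drug dose plus five library-drug doses (not always all listed) in √10 steps, and values are medians of duplicate plates imaged at 4×.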

Doxorubicin + OSI-027 = compound: COc1cccc2c1C(=O)c1c(O)c3c(c(O)c1C2=O)C[C@@](O)(C(=O)CO)C[C@@H]3O[C@H]1C[C@H](N)[C@H](O)[C@H](C)O1 [Doxorubicin] + COc1cccc2cc(-c3nc([C@H]4CC[C@H](C(=O)O)CC4)n4ncnc(N)c34)[nH]c12 [OSI-027] (partner 0.5 µM)
In short: as §1

Doxorubicin + Olaparib = compound: COc1cccc2c1C(=O)c1c(O)c3c(c(O)c1C2=O)C[C@@](O)(C(=O)CO)C[C@@H]3O[C@H]1C[C@H](N)[C@H](O)[C@H](C)O1 [Doxorubicin] + O=C(c1cc(Cc2n[nH]c(=O)c3ccccc23)ccc1F)N1CCN(C(=O)C2CC2)CC1 [Olaparib] (partner 8 µM)
In short: as §1

Doxorubicin + Decitabine = compound: COc1cccc2c1C(=O)c1c(O)c3c(c(O)c1C2=O)C[C@@](O)(C(=O)CO)C[C@@H]3O[C@H]1C[C@H](N)[C@H](O)[C@H](C)O1 [Doxorubicin] + Nc1ncn([C@H]2C[C@H](O)[C@@H](CO)O2)c(=O)n1 [Decitabine] (partner 2 µM)
In short: as §1

Cell Line | relative viability (BAY61-3606 + Pemetrexed; first compound 0.02 µM) | relative viability (BAY61-3606 + Pemetrexed; first compound 0.06325 µM) | relative viability (BAY61-3606 + Pemetrexed; first compound 0.2 µM) | relative viability (BAY61-3606 + Pemetrexed; first compound 0.6325 µM) | relative viability (BAY61-3606 + Pemetrexed; first compound 2 µM) | relative viability (Doxorubicin + OSI-027; first compound 0.001 µM) | relative viability (Doxorubicin + OSI-027; first compound 0.003162 µM) | relative viability (Doxorubicin + OSI-027; first compound 0.01 µM) | relative viability (Doxorubicin + OSI-027; first compound 0.03162 µM) | relative viability (Doxorubicin + OSI-027; first compound 0.1 µM) | relative viability (Doxorubicin + Olaparib; first compound 0.001 µM) | relative viability (Doxorubicin + Olaparib; first compound 0.003162 µM) | relative viability (Doxorubicin + Olaparib; first compound 0.01 µM) | relative viability (Doxorubicin + Olaparib; first compound 0.03162 µM) | relative viability (Doxorubicin + Olaparib; first compound 0.1 µM) | relative viability (Doxorubicin + Decitabine; first compound 0.001 µM) | relative viability (Doxorubicin + Decitabine; first compound 0.003162 µM) | relative viability (Doxorubicin + Decitabine; first compound 0.01 µM) | relative viability (Doxorubicin + Decitabine; first compound 0.03162 µM) | relative viability (Doxorubicin + Decitabine; first compound 0.1 µM)
SK-LU-1 | 0.974 | 1.02 | 1.01 | 0.968 | 0.661 | 0.359 | 0.297 | 0.28 | 0.224 | 0.173 | 0.512 | 0.451 | 0.397 | 0.359 | 0.356 | 0.68 | 0.745 | 0.554 | 0.445 | 0.473
LXF-289 | 0.94 | 0.939 | 0.901 | 0.946 | 0.907 | 0.613 | 0.832 | 0.794 | 0.834 | 0.819 | 1.03 | 1.12 | 0.998 | 1.07 | 1.15 | 0.41 | 0.413 | 0.395 | 0.317 | 0.392
NCI-H1563 | 0.894 | 0.745 | 0.669 | 0.84 | 0.712 | 0.813 | 0.788 | 0.684 | 0.589 | 0.5 |  |  |  |  |  |  |  |  |  | 
ABC-1 |  |  |  |  |  | 0.431 | 0.494 | 0.424 | 0.306 | 0.32 | 0.946 | 0.761 | 0.723 | 0.525 | 0.306 | 0.993 | 1.18 | 0.955 | 0.708 | 0.726
A549 |  |  |  |  |  |  |  |  |  |  |  | 0.437 | 0.375 | 0.275 | 0.264 | 0.245 | 0.266 | 0.257 | 0.179 | 0.235
NCI-H1703 |  |  |  |  |  |  |  |  |  |  | 0.377 | 0.332 | 0.309 | 0.222 | 0.177 |  |  |  |  | 
Calu-6 |  |  |  |  |  |  |  |  |  |  | 0.554 | 0.536 | 0.457 | 0.298 | 0.197 |  |  |  |  | 
EBC-1 |  |  |  |  |  |  |  |  |  |  | 0.682 | 0.735 | 0.73 | 0.54 | 0.284 |  |  |  |  | 
NCI-H727 |  |  |  |  |  | 0.483 | 0.713 | 0.531 | 0.631 | 0.556 | 0.821 | 0.811 |  | 0.768 | 0.753 | 0.913 | 0.909 |  | 0.89 | 0.909
NCI-H1299 |  |  |  |  |  |  |  |  |  |  | 0.937 | 0.949 | 0.952 | 0.942 | 0.753 |  |  |  |  | 
NCI-H2228 | 0.326 | 0.325 | 0.391 | 0.393 | 0.369 | 0.35 | 0.62 | 0.414 | 0.274 | 0.209 | 0.579 | 0.717 | 0.682 | 0.249 | 0.179 |  |  |  |  | 
IA-LM |  |  |  |  |  |  |  |  |  |  | 0.796 | 0.889 | 0.954 | 0.754 | 0.673 |  |  |  |  | 
CAL-12T | 1.29 | 1.38 | 1.22 | 1.22 | 0.742 | 0.609 | 0.695 | 0.515 | 0.194 | 0.146 | 0.7 | 0.668 | 0.559 | 0.212 | 0.191 |  |  |  |  | 
